Assay results from US20260092074A1, “Annelated Pyridines as Steroidogenesis Inhibitors, Preparation Method and Use Thereof” (Guangzhou Vinnocent Pharmaceutical Limited, priority 2022, published 2026).
pIC50: −log10 of the molar value.

Tests used:
human CYP11B2 = target: T1, human CYP11B2 (Homo sapiens, UniProt P19099); assay: Inhibition of hCYP11B2 in transfected V79 cells; format: cell-based; conditions: hamster V79 cells expressing human CYP11B2; substrate 11-deoxycorticosterone 200 nM
T1 construct: expressed in transfected cells
T1 sequence (P19099 25-503): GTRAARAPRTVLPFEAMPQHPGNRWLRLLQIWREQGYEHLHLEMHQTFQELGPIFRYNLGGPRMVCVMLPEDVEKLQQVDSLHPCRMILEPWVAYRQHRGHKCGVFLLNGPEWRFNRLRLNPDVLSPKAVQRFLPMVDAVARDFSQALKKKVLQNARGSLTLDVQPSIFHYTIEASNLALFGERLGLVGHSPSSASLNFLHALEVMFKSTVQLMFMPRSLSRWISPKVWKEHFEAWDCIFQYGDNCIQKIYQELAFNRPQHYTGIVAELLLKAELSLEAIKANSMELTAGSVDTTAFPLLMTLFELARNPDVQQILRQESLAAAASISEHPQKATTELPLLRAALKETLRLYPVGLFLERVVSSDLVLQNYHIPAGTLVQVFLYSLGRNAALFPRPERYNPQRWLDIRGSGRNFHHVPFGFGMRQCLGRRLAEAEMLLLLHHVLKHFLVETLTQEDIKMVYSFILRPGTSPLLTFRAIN
Description: (§1) Genes of human CYP11B2 and rat NADPH-P450 reductase were transfected into hamster V79 cells using a lentivirus vector, and stably-expressing cell lines were selected by taking advantages of the associated puromycin-resistance gene. Cultured cells were diluted and seeded in a 96-well plate with an amount of approximately 10,000 per well. After pre-incubation with suitable concentrations of the test compounds for 2 hours, 11-deoxycorticosterone of 200 nM was added as the substrate to initiate the catalytic reaction. After further incubation for 30 minutes, it was quenched with ethyl acetate. Subsequently, the substrate and product(s) were quantified using LC-MS/MS or HPLC at 260 nm, and the IC50 values were calculated according to inhibitory percentage.

human CYP11B1 = target: T2, human CYP11B1 (Homo sapiens, UniProt P15538); assay: Inhibition of hCYP11B1 in transfected V79 cells; format: cell-based; conditions: hamster V79 cells expressing human CYP11B1; substrate 11-deoxycortisol 200 nM
T2 construct: expressed in transfected cells
T2 sequence (P15538 25-503): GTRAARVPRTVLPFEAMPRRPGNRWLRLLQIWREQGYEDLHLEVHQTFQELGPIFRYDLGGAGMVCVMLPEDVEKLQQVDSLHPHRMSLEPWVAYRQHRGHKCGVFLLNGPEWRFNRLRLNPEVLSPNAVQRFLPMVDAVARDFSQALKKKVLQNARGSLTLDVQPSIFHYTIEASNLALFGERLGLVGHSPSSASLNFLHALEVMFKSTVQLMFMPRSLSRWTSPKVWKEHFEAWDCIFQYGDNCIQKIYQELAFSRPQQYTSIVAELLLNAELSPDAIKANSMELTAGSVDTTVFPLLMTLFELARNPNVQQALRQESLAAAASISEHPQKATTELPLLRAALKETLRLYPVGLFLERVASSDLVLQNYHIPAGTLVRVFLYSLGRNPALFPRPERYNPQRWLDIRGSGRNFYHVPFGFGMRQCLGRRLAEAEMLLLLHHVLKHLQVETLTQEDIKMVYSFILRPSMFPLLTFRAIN
Description: as §1, with “CYP11B1” for “CYP11B2”, “11-deoxycortisol” for “11-deoxycorticosterone”

| pIC50 (human CYP11B2) | pIC50 (human CYP11B1) | SMILES |
| --- | --- | --- |
| 7.63 | 5.92 | N#Cc1ccc(-c2cncc3c2OCCN3C(=O)c2cccc([N+](=O)[O-])c2)cc1 [O27, 4-(4-(3-Nitrobenzoyl)-3,4-dihydro-2H-pyrido[4,3-b][1,4]oxazin-8-yl)benzonitrile] |
| 8.48 | 6.61 | N#Cc1ccc(S(=O)(=O)N2CCOc3c(-c4ccc5ncoc5c4)cncc32)cc1 [O131, 4-((8-(Benzo[d]oxazol-6-yl)-2,3-dihydro-4H-pyrido[4,3-b][1,4]oxazin-4-yl)sulfonyl)benzonitrile] |
| 8.23 | 6.87 | COc1ccc(S(=O)(=O)N2CCSc3c(-c4cccc(F)c4)cncc32)cc1 [S31, 8-(3-Fluorophenyl)-4-((4-methoxyphenyl)sulfonyl)-3,4-dihydro-2H-pyrido[4,3-b][1,4]thia zine] |
| 9.52 | 7.21 | N#Cc1ccc(-c2cncc3c2OCCN3S(=O)(=O)C2CC(c3ccccc3)=NO2)cc1 (centres unmarked) [O102, 4-(4-((3-Phenyl-4,5-dihydroisoxazol-5-yl)sulfonyl)-3,4-dihydro-2H-pyrido[4,3-b][1,4]oxazin-8-yl)benzonitrile] |
| 7.89 | 6.07 | N#Cc1ccc(-c2cncc3c2SCCN3C(=O)c2ccc(Cl)cc2)cc1 [S92, 4-(4-(4-Chlorobenzoyl)-3,4-dihydro-2H-pyrido[4,3-b][1,4]thiazin-8-yl)benzonitrile] |
| 8.14 | 6.12 | N#Cc1ccc(C(=O)N2CCc3c(-c4ccc(C#N)cc4)cncc32)cc1 [C48, 4-(1-(4-Cyanobenzoyl)-2,3-dihydro-1H-pyrrolo[2,3-c]pyridin-4-yl)benzonitrile] |
| 9.10 | 7.14 | COc1ccc(CC(=O)N2CCOc3c(-c4ccc(C#N)cc4)cncc32)cc1 [O40, 4-(4-(2-(4-Methoxyphenyl)acetyl)-3,4-dihydro-2H-pyrido[4,3-b][1,4]oxazin-8-yl)benzonitrile] |
| 7.52 | 6.29 | O=C(c1ccccc1F)N1CCc2c(-c3ccc4[nH]ccc4c3)cncc21 [C62, (4-(1H-indol-5-yl)-2,3-dihydro-1H-pyrrolo[2,3-c]pyridin-1-yl)(2-fluorophenyl)methanone] |
| 8.96 | 7.24 | COc1ccc(CN2CC(S(=O)(=O)N3CCSc4c(-c5ccc(C#N)cc5)cncc43)C2)cc1 [S84, 4-(4-((1-(4-Methoxybenzyl)azetidin-3-yl)sulfonyl)-3,4-dihydro-2H-pyrido[4,3-b][1,4]thiazin-8-yl)benzonitrile] |
| 8.98 | 7.92 | N#Cc1ccc(-c2cncc3c2SCCN3S(=O)(=O)c2cccc(C(F)(F)F)c2)cc1 [S16, 4-(4-((3-(Trifluoromethyl)phenyl)sulfonyl)-3,4-dihydro-2H-pyrido[4,3-b][1,4]thiazin-8-yl) benzonitrile] |
| 8.22 | 6.31 | O=C(C1CN(Cc2cccc(F)c2)C1)N1CCOc2c(-c3ccc4ncsc4c3)cncc21 [O88, (8-(Benzo[d]thiazol-6-yl)-2,3-dihydro-4H-pyrido[4,3-b][1,4]oxazin-4-yl)(1-(3-fluorobenzyl)azetidin-3-yl)methanone] |
| 7.81 | 5.59 | O=C1Cc2cc(-c3cncc4c3OCCN4C(=O)C3CN(Cc4cccc(F)c4)C3)ccc2N1 [O89, 5-(4-(1-(3-Fluorobenzyl)azetidine-3-carbonyl)-3,4-dihydro-2H-pyrido[4,3-b][1,4]oxazin-8-yl)indolin-2-one] |
| 7.74 | 6.11 | N#CCC(=O)N1CCOc2c(-c3ccc(C#N)cc3)cncc21 [O32, 4-(4-(2-Cyanoacetyl)-3,4-dihydro-2H-pyrido[4,3-b][1,4]oxazin-8-yl)benzonitrile] |
| 9.30 | 9.05 | N#Cc1ccc(-c2cncc3c2CCN3S(=O)(=O)c2cccc(Cl)c2)cc1 [C14, 4-(1-((3-Chlorophenyl)sulfonyl)-2,3-dihydro-1H-pyrrolo[2,3-c]pyridin-4-yl)benzonitrile] |
| 8.72 | 7.09 | COc1cccc(C(=O)n2ccc3c(-c4ccc(C#N)cc4)cncc32)c1 [E24, 4-(1-(3-Methoxybenzoyl)-1H-pyrrolo[2,3-c]pyridin-4-yl)benzonitrile] |
| 9.05 | 7.00 | N#Cc1ccc(-c2cncc3c2OCCN3C(=O)C(F)(F)F)cc1 [O35, 4-(4-(2,2,2-Trifluoroacetyl)-3,4-dihydro-2H-pyrido[4,3-b][1,4]oxazin-8-yl)benzonitrile] |
| 9.70 | 7.97 | Cn1cc(S(=O)(=O)N2CCSc3c(-c4cc5cc(Cl)ccc5o4)cncc32)cn1 [S55, 8-(5-Chlorobenzofuran-2-yl)-4-((1-methyl-1H-pyrazol-4-yl)sulfonyl)-3,4-dihydro-2H-pyrido[4,3-b][1,4]thiazine] |
| 8.22 | 6.17 | COc1cccc(C(=O)N2CCc3c(N4CCN(C#N)CC4)cncc32)c1 [C83, 4-(1-(3-Methoxybenzoyl)-2,3-dihydro-1H-pyrrolo[2,3-c]pyridin-4-yl)piperazine-1-carbonitrile] |
| 8.68 | 6.74 | N#Cc1ccc(-c2cncc3c2OCCN3C(=O)C2CN(Cc3cccc(F)c3)C2)cc1 [O78, 4-(4-(1-(3-Fluorobenzyl)azetidine-3-carbonyl)-3,4-dihydro-2H-pyrido[4,3-b][1,4]oxazin-8-yl)benzonitrile] |
| 10.00 | 10.00 | Cc1ccc(S(=O)(=O)N2CCOc3c(-c4ccc(C#N)cc4)cncc32)cc1 [O4, 4-(4-Tosyl-3,4-dihydro-2H-pyrido[4,3-b][1,4]oxazin-8-yl)benzonitrile] |
| 8.85 | 7.07 | N#Cc1ccc(-c2cncc3c2OCCN3C(=O)Cc2cccc(F)c2)cc1 [O37, 4-(4-(2-(3-Fluorophenyl)acetyl)-3,4-dihydro-2H-pyrido[4,3-b][1,4]oxazin-8-yl)benzonitrile] |
| 7.62 | 5.88 | N#Cc1ccc(-c2cncc3c2SCCN3C(=O)c2cccc(Cl)c2)cc1 [S93, 4-(4-(3-Chlorobenzoyl)-3,4-dihydro-2H-pyrido[4,3-b][1,4]thiazin-8-yl)benzonitrile] |
| 8.74 | 9.40 | N#Cc1ccc(-c2cncc3c2CCN3S(=O)(=O)c2cccc(C(F)(F)F)c2)cc1 [C20, 4-(1-((3-[Trifluoromethyl]phenyl)sulfonyl)-2,3-dihydro-1H-pyrrolo[2,3-c]pyridin-4-yl)benzonitrile] |
| 8.33 | 6.42 | N#Cc1ccc2[nH]c(-c3cncc4c3OCCN4C(=O)C3CN(Cc4cccc(F)c4)C3)cc2c1 [O94, 2-(4-(1-(3-Fluorobenzyl)azetidine-3-carbonyl)-3,4-dihydro-2H-pyrido[4,3-b][1,4]oxazin-8-yl)-1H-indole-5-carbonitrile] |
| 7.66 | 6.16 | O=S(=O)(C1CCNCC1)N1CCSc2c(-c3cc4cc(Cl)ccc4o3)cncc21 [S61, 8-(5-Chlorobenzofuran-2-yl)-4-(piperidin-4-ylsulfonyl)-3,4-dihydro-2H-pyrido[4,3-b][1, 4]thiazine] |
| 7.28 | 6.53 | N#Cc1ccc(S(=O)(=O)N2CCSc3c(-c4ccn5ccnc5c4)cncc32)cc1 [S50, 4-((8-(Imidazo[1,2-a]pyridin-7-yl)-2,3-dihydro-4H-pyrido[4,3-b][1,4]thiazin-4-yl)sulfonyl)benzonitrile] |
| 9.05 | 7.43 | COc1cccc(CN2CC(S(=O)(=O)N3CCSc4c(-c5ccc(C#N)cc5)cncc43)C2)c1 [S85, 4-(4-((1-(3-Methoxybenzyl)azetidin-3-yl)sulfonyl)-3,4-dihydro-2H-pyrido[4,3-b][1,4]thiazin-8-yl)benzonitrile] |
| 7.77 | 6.07 | Cn1ncc2ccc(-c3cncc4c3ccn4C(=O)c3ccc(F)cc3)cc21 [E35, (4-Fluorophenyl)(4-(1-methyl-1H-indazol-6-yl)-1H-pyrrolo[2,3-c]pyridin-1-yl)methanone] |
